Assay results from patent US10080779B2, “Method for increasing the expression of anti-microbial peptides by keratinocytes comprising administering a composition comprising IL-17, TNF-alpha and OSM” (Universite D'Angers, priority 2004, dated 2018).

What was measured:
Format in all cases: cell-based, human
RHE = RHE histology and immunohistochemistry (Example 14); conditions: single cytokines, 72 h
Description: Normal human epidermal keratinocytes (NHEK) were obtained as previously described, from surgical samples of healthy breast skin (Boniface et al, 2005). NHEK were cultured to 80% of confluence allowing the expression of a large panel of keratinocyte differentiation markers, and then starved for 24 h in Keratinocyte SFM containing 0.03 mM Ca^2+ (Invitrogen Life Technologies, Cergy Pontoise, France) before stimulation. Confluent differentiated cells were stimulated with or without recombinant IL-17A, OSM, TNFα, IL-22 and IL-1α alone at maximum effective concentrations (reported previously around 10 ng/ml (Boniface et al, 2005 and Boniface et al, 2007)) or in combination (R&D systems Europe, Lille, France) during 2 h to 72 h for mRNA quantification. RHE were generated on polycarbonate culture inserts, from surgical samples of paediatric foreskins as previously described (Guenou et al., 2009). RHE were stimulated with or without recombinant IL-17A, OSM, TNFα, IL-22 and IL-1α alone or in combination, with or without a Janus protein Tyrosine Kinases (JAKs) inhibitor 10 μM (Calbiochem, 420099), during 24 h for mRNA quantification or during 72 h for immunohistological analysis.
RHE were washed and fixed with formaldehyde solution. Fixed tissues were dehydrated with increasing ethanol concentrations, embedded in paraffin and sections were carried out using a microtome (4 μm thickness). The sections were deparaffinised, washed and incubated with hydrogen peroxide. The sections were incubated with anti-CK10 (SantaCruz, SC-23877), anti-LOR (Eurogentec, PRB-145P), anti-FLG (SantaCruz, SC-66192), anti-IVL (Biomedical Technologies, BT-601), anti-S100A7 (Clinisciences, IMG-409A) and then detected using a biotin-conjugated secondary antibody (Vector, RTU vectastain universal quick kit, PK-7800). After peroxidase-conjugated streptavidine (Vector, RTU vectastain universal quick kit, PK-7800) and peroxidase substrate addition (Dako, Substrat hyper-sensible AEC+), nuclei were counter-stained using a solution of hematoxylin. Sections were observed using a NIKON E400 microscope. The images were captured using a NIKON DS-Ril and processed with NIS-Elements 3.10 software.

NHEK [1] = test: cDNA macroarrays analysis of 36 cytokines on 154 genes in NHEK; conditions: 10 ng/ml, 24 h
Description: The comparison of the effects of 36 different cytokines on the expression of 154 genes of potential interest for skin physiology was performed using home-made cDNA macroarrays analysis. After cytokine stimulation, total RNA was extracted using TRIzoI® Reagent (Invitrogen life Technologies) and conventional 33P-cDNA target synthesis and hybridization were performed (Boniface et al, 2007). Genes were considered regulated if expression levels differed more than 3-fold relative to untreated control and 3-fold relative to mean background noise.

NHEK [2] = test: S100 proteins expression in NHEK (Western blot); conditions: 10 ng/ml OSM, day 2 and day 4
Description: […] Cell lysis was performed with 50 mM Tris HCl pH 7.4, 150 mM NaCl, 1 mM EDTA, 1% Triton, 1% sodium deoxycholate, 0.1% SDS, 1 mM PMSF, 1 mM sodium orthovanadate, 1% protease inhibitors. S100A7, S100A8 and S100A9 were detected by immunochemistry as described above. Ponceau red staining was used to control loading homogeneity.

NHEK [3] = test: RT-real time PCR of S100 mRNA in cytokine-stimulated NHEK
Description: Quantitative real time PCR was carried out using the LightCycler-FastStart DNA Master^PLUS SYBR Green I kit (Roche, Mannheim, Germany). The reaction components were 1× FastStart DNA Master^PLUS SYBR Green I and 0.5 μM of forward and reverse primers for S100A7 (forward 5′-[…]-3′ (SEQ ID No: 9) and reverse 5′-[…]-3′ (SEQ ID No: 10)), S100A8 (Pattyn, Speleman et al. 2003), S100A9 (forward 5′-[…]-3′ (SEQ ID No: 11) and reverse 5′-[…]-3′ (SEQ ID No: 12)), hBD2/4 (forward 5′-[…]-3′ (SEQ ID No: 13) and reverse 5′-[…]-3′ (SEQ ID No: 14)), KRT10 (forward 5′-[…]-3′ (SEQ ID No: 15) and reverse 5′-[…]-3′ (SEQ ID No: 16)), and hydroxymethyl-bilane synthase (HMBS) as a housekeeping gene (Vandesompele, De Preter et al. 2002). After cDNA fluorescent quantification using propidium iodide, 250 ng, 25 ng and 2.5 ng of cDNA were added as PCR template in the LightCycler glass capillaries. The cycling conditions comprised a 10 min polymerase activation at 95° C. and 50 cycles at 95° C. for 10 s, 64° C. for 5 s and 72° C. for 18 s with a single fluorescence measurement. […] A mathematical model was used to determine the relative quantification of target genes compared to HMBS reference gene (Pfaffl 2001).

STAT3 = STAT3 phosphorylation in NHEK (Western blot)
Description: For STAT3 and MAPK phosphorylation, NHEK were stimulated for 15 min in the presence of the indicated cytokine. Cells were lysed in SDS sample buffer (62.5 mM Tris-HCl pH 6.8, 2% SDS, 10% glycerol, 50 mM DTT, 0.1% bromophenol blue), sonicated and then submitted to SDS-PAGE and transferred onto an Immobilon membrane. The membranes were subsequently incubated overnight with the primary antibody, before being incubated with the appropriate peroxidase-labelled secondary antibody for 60 min. The reaction was visualized by chemiluminescence according to the manufacturer's instructions. Membranes were stripped in 0.1 M glycine pH 2.8 for 2 h and neutralized in 1 M Tris-HCl pH 7.6 before reblotting. For neutralizing experiments, NHEK were incubated with the appropriate antibodies for 2 h before stimulation.

## OSM: human recombinant oncostatin M, cytokine of the IL-6 family
RHE; RHE
  CK10, LOR and FLG expression (immunohistology): decreases expression of CK10, LOR and FLG
  IVL expression (immunohistology): strongly
  S100A7 expression (immunohistology): strongly induced
RHE
  RHE histology: significant keratinocyte hyperplasia
NHEK [1]
  Number of genes (of 154) whose expression is modified with at least a three fold increase or decrease: at least five genes
NHEK [2]
  S100A7, S100A8, S100A9 protein expression: increased expression of studied proteins
NHEK [3]; 10 ng/ml OSM
  Time at which S100A7 mRNA increase starts: 12 h
NHEK [3]; 10 ng/ml OSM, 96 h
  psoriasin/S100A7 mRNA induction above the control value: about 290 folds
NHEK [3]; 48-h treatment
  OSM concentration at which plateau of S100A7 mRNA is reached: 6.3 ng/mL
NHEK [3]; 48-h treatment, 6.3 ng/ml OSM
  psoriasin/S100A7 mRNA increase above control at plateau: fifty fold increase
STAT3; NHEK stimulated 15 min with the cytokine
  STAT3 tyrosine phosphorylation (P-STAT3): strong induction of tyrosine phosphorylation
STAT3; NHEK, 15 min
  OSM concentration down to which plateau P-STAT3 level is still present: ≥ 3 ng/mL
